Data on 27 compounds can be found in US11053226B2, “KRAS G12C inhibitors and methods of using the same” (Amgen Inc., priority 2018, dated 2021).

The structures appear in SMILES notation.

Chain of GDP-bound KRAS protein (aa 1-169), containing both G12C and C118A amino acid substitutions (P01116 other isoform, or with tags, fused parts or gaps G12C/C118A): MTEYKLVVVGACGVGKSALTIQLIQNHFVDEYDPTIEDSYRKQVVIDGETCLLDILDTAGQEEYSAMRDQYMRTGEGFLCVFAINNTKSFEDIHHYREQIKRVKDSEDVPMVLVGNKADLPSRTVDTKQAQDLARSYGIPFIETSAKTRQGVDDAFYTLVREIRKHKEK

The target in one test is GDP-bound KRAS protein (aa 1-169), containing both G12C and C118A amino acid substitutions (Homo sapiens (Human), UniProt P01116, C118A/G12C). The test is described as follows: Coupled Nucleotide Exchange Assay. Type of test: biochemical. The settings on record: read-out: Coupled Exchange IC50 (2 h); 2 h compound pre-incubation. As to the method: For compounds in Table 9, the following assay conditions were employed:
Coupled Nucleotide Exchange Assay:
The assay plates were then read on a PerkinElmer EnVision Multilabel Reader, using AlphaScreen® technology, and data were analyzed using a 4-parameter logistic model to calculate IC50 values.
As a reminder, the IC50 is the concentration at which inhibition is half-maximal. As to `C=CC(=O)N1CC(NC(=O)Cn2ccc3cc(-c4ccccc4)ccc32)C1` [Example 237], the half-maximal inhibitory concentration (IC50) was more than 250 µM.
Same read-out and setting: the value for `C=CC(=O)N1CC(NC(=O)Cn2c3c(c4cc(Br)ccc42)C=NCC3)C1` [Example 238] was 73.1 µM.
Consider `C=CC(=O)N1CC(NC(=O)Cn2c3c(c4cc(Br)ccc42)CCN(Cc2ccccc2)C3)C1` [Example 239], for which the IC50 was more than 250 µM.
On the same count and under the same terms, the value for `C=CC(=O)N1CC(NC(=O)Cn2cc([N+](=O)[O-])c3cc(Cl)ccc32)C1` [Example 240] was 13.1 µM; that for `C=CC(=O)N1CC(NC(=O)CN2Cc3c(n(C(C)=O)c4ccc(Br)cc34)C2)C1` [Example 242] was more than 250 µM.
Still for that read-out and setting: in the case of `C=CC(=O)N1CC(NC(=O)Cn2c(-c3ccccc3)cc3cc(Br)ccc32)C1` [Example 243] it was 18.2 µM.
On the same count and under the same terms, the value for `C=CC(=O)N1CC(NC(=O)Cn2c3c(c4cc(Br)ccc42)CNCC3)C1` [Example 249] was 54.6 µM; that for `C=CC(=O)N1CC(NC(=O)Cn2c3c(c4cc(Br)ccc42)CCNC3)C1` [Example 250] was 89.4 µM.
For `C=CC(=O)N1CC(NC(=O)Cn2c3c(c4cc(Br)ccc42)CN(C(C)=O)CC3)C1` [Example 251], the half-maximal inhibitory concentration (IC50) was more than 250 µM.
On the same count and under the same terms, in the case of `C=CC(=O)N1CC(NC(=O)Cn2c3c(c4cc(Br)ccc42)CCN(C(C)=O)C3)C1` [Example 252] it was 19.4 µM.
On the same count and under the same terms, the value for `C=CC(=O)N1CC(NC(=O)Cn2cc(C(C)(O)C(=O)NCc3ccccc3)c3cc(Br)ccc32)C1` (stereo not drawn) [Example 253] was 19.4 µM; that for `C=CC(=O)N1CC(NC(=O)Cn2ccc3c(F)c(Br)ccc32)C1` [Example 255] was more than 250 µM.
Still for that read-out and setting: in the case of `C=CC(=O)N1CC(NC(=O)Cn2ccc3cc(Cl)c(Cl)cc32)C1` [Example 258] it was 104 µM; in that of `C=CC(=O)N1CC(NC(=O)Cn2c3ccc(Br)cc3c3ccncc32)C1` [Example 259], 26.8 µM; in that of `C=CC(=O)N1CC(N(C)C(=O)Cn2c3ccccc3c3cc(Br)ccc32)C1` [Example 261], 15.4 µM.
In the case of `C=CC(=O)N1CC(NC(=O)Cn2c3c(c4cc(Br)ccc42)CCCC3=O)C1` [Example 262], the IC50 is more than 250 µM.
In the case of `C=CC(=O)N1CC(NC(=O)Cn2cc(-c3ccc4ccccc4c3)c3cc(-c4ccc5ccccc5c4)cc(C)c32)C1` [Example 263], the IC50 is more than 250 µM.
Still for that read-out and setting: in the case of `C=CC(=O)N1CC(NC(=O)Cn2cc(-c3ccc4ccccc4c3)c3cc(Br)cc(C)c32)C1` [Example 264] it was 9.6 µM; in that of `C=CC(=O)N1CC(NC(=O)Cn2cc(-c3cccc(-c4ccccc4)c3)c3cc(Br)cc(C)c32)C1` [Example 265], more than 250 µM.
Still for that read-out and setting: in the case of `C=CC(=O)N1CC(NC(=O)Cn2ccc3cc(SC)ccc32)C1` [Example 266] it was more than 250 µM; in that of `C=CC(=O)N1CC(NC(=O)Cn2ccc3cc(Br)cc(F)c32)C1` [Example 267], 15.5 µM.
Same read-out and setting: the value for `C=CC(=O)N1CC(NC(=O)Cn2cc(-c3cccc(C(C)C)c3)c3cc(Br)cc(C)c32)C1` [Example 268] was 6.81 µM.

The test is the same for the next values; noted with them: read-out: Coupled Exchange IC50 (20 h); 20 h compound pre-incubation.
As to `C=CC(=O)N1CC(NC(=O)Cn2ccc3cc(-c4ccccc4)ccc32)C1` [Example 237], the concentration for half-maximal inhibition (IC50) is more than 250 µM.
With `C=CC(=O)N1CC(NC(=O)Cn2c3c(c4cc(Br)ccc42)C=NCC3)C1` [Example 238], the IC50 was 9.89 µM.
Same read-out and setting: the value for `C=CC(=O)N1CC(NC(=O)Cn2c3c(c4cc(Br)ccc42)CCN(Cc2ccccc2)C3)C1` [Example 239] was 44 µM.
In the case of `C=CC(=O)N1CC(NC(=O)Cn2cc([N+](=O)[O-])c3cc(Cl)ccc32)C1` [Example 240], the IC50 is 1.33 µM.
On the same count and under the same terms, in the case of `C=CC(=O)N1CC(NC(=O)CN2Cc3c(n(C(C)=O)c4ccc(Br)cc34)C2)C1` [Example 242] it was 7.66 µM; in that of `C=CC(=O)N1CC(NC(=O)Cn2c(-c3ccccc3)cc3cc(Br)ccc32)C1` [Example 243], 2.82 µM.
Still for that read-out and setting: the value for `C=CC(=O)N1CC(NC(=O)Cn2c3c(c4cc(Br)ccc42)CNCC3)C1` [Example 249] was 21.7 µM.
On the same count and under the same terms, the value for `C=CC(=O)N1CC(NC(=O)Cn2c3c(c4cc(Br)ccc42)CCNC3)C1` [Example 250] was 5.69 µM; that for `C=CC(=O)N1CC(NC(=O)Cn2c3c(c4cc(Br)ccc42)CN(C(C)=O)CC3)C1` [Example 251] was 7.91 µM; that for `C=CC(=O)N1CC(NC(=O)Cn2c3c(c4cc(Br)ccc42)CCN(C(C)=O)C3)C1` [Example 252] was 2.49 µM.
Regarding `C=CC(=O)N1CC(NC(=O)Cn2cc(C(C)(O)C(=O)NCc3ccccc3)c3cc(Br)ccc32)C1` (stereo not drawn) [Example 253], the IC50 came out at 2.31 µM.
Take `C=CC(=O)N1CC(NC(=O)Cn2ccc3c(F)c(Br)ccc32)C1` [Example 255]: the IC50 came out at 4.89 µM.
Regarding `C=CC(=O)N1CC(NC(=O)Cn2ccc3cc(Cl)c(Cl)cc32)C1` [Example 258], the IC50 was determined as 5.22 µM.
On the same count and under the same terms, in the case of `C=CC(=O)N1CC(NC(=O)Cn2c3ccc(Br)cc3c3ccncc32)C1` [Example 259] it was 2.88 µM.
As for `C=CC(=O)N1CC(N(C)C(=O)Cn2c3ccccc3c3cc(Br)ccc32)C1` [Example 261], the IC50 is 2.17 µM.
Still for that read-out and setting: the value for `C=CC(=O)N1CC(NC(=O)Cn2c3c(c4cc(Br)ccc42)CCCC3=O)C1` [Example 262] was 3.31 µM; that for `C=CC(=O)N1CC(NC(=O)Cn2cc(-c3ccc4ccccc4c3)c3cc(-c4ccc5ccccc5c4)cc(C)c32)C1` [Example 263] was 16.3 µM.
For the compound `C=CC(=O)N1CC(NC(=O)Cn2cc(-c3ccc4ccccc4c3)c3cc(Br)cc(C)c32)C1` [Example 264], the IC50 is 2.75 µM.
The same measure, in the same setting: the value for `C=CC(=O)N1CC(NC(=O)Cn2cc(-c3cccc(-c4ccccc4)c3)c3cc(Br)cc(C)c32)C1` [Example 265] was 3.24 µM; that for `C=CC(=O)N1CC(NC(=O)Cn2ccc3cc(SC)ccc32)C1` [Example 266] was more than 62.5 µM.
Still for that read-out and setting: in the case of `C=CC(=O)N1CC(NC(=O)Cn2ccc3cc(Br)cc(F)c32)C1` [Example 267] it was 2.25 µM.
The same measure, in the same setting: in the case of `C=CC(=O)N1CC(NC(=O)Cn2cc(-c3cccc(C(C)C)c3)c3cc(Br)cc(C)c32)C1` [Example 268] it was 1.62 µM.

The same test, now with this note: second Coupled Exchange column; read-out: Coupled Exchange IC50.
As for `C=CC(=O)N1CC(NC(=O)Cn2ccc3cc(CC)ccc32)C1` [Example 277], the 50% inhibitory concentration (IC50) is more than 250 µM.
Consider `C=CC(=O)N1CC(NC(=O)Cn2c(C)c(C(=O)OC(C)(C)C)c3cc([N+](=O)[O-])ccc32)C1` [Example 278], for which the 50% inhibitory concentration (IC50) was determined as 105 µM.
Still for that read-out and setting: the value for `C=CC(=O)N1CC(NC(=O)Cn2c3ccccc3c3ccc(Cl)nc32)C1` [Example 280] was more than 250 µM.
On the same count and under the same terms, in the case of `C=CC(=O)N1CC(NC(=O)Cn2c(C)c(-c3nccnc3Cl)c3cc(Cl)ccc32)C1` [Example 281] it was 13.6 µM; in that of `C=CC(=O)N1CC(NC(=O)Cn2c(C#N)c(I)c3cc(Br)ccc32)C1` [Example 304], 7.24 µM.

Staying with this test, now noted: third Coupled Exchange column; compound pre-incubation probably 20 hours (rest of head not shown; b435 lists 5 min, 2 hours or 20 hours); read-out: Coupled Exchange IC50.
Regarding `C=CC(=O)N1CC(NC(=O)Cn2ccc3cc(CC)ccc32)C1` [Example 277], the half-maximal inhibitory concentration (IC50) is more than 250 µM.
Same read-out and setting: the value for `C=CC(=O)N1CC(NC(=O)Cn2c(C)c(C(=O)OC(C)(C)C)c3cc([N+](=O)[O-])ccc32)C1` [Example 278] was more than 250 µM; that for `C=CC(=O)N1CC(NC(=O)Cn2c3ccccc3c3ccc(Cl)nc32)C1` [Example 280] was more than 62.5 µM.
Still for that read-out and setting: the value for `C=CC(=O)N1CC(NC(=O)Cn2c(C)c(-c3nccnc3Cl)c3cc(Cl)ccc32)C1` [Example 281] was 2.32 µM.
Same read-out and setting: the value for `C=CC(=O)N1CC(NC(=O)Cn2c(C#N)c(I)c3cc(Br)ccc32)C1` [Example 304] was 1.24 µM.
